From PMC7225226, “Fluorescence labeling of a NaV1.7-targeted peptide for near-infrared nerve visualization” (EJNMMI Research, 2020)
Where “and” joins values, the source holds several entries; their conditions need not be identical. Equal entries are not always repeated.

What was measured:
[1] = tested on: mouse sciatic nerve (NaV1.7); test: Confocal microscopy of sciatic nerve after intravenous injection; type: in vivo; details: i.v. Hs1a-FL 4 nmol (45 μM in 100 μL PBS), with or without Hs1a 12 nmol (120 μM, 3-fold molar excess); 30 min post-injection; athymic nude mice
Procedure: (§1) Female athymic nude mice (4–8 weeks old, athymic-nude (outbred) (stock#:088; Envigo, USA) were allowed to acclimatize at the MSKCC vivarium for 1 week with ad libitum food and water prior to the experimental procedure. For imaging experiments, animals were sacrificed 30 min post-tail vein injection of Hs1a-FL, Hs1a/Hs1a-FL, or PBS. All animal experiments were performed in accordance with institutional guidelines and approved by the MSKCC Institutional Animal Care and Use Committee, following the NIH guidelines for animal welfare.
(§2) For the confocal microscopy experiments, 5 μm cryosections of sciatic nerve tissues embedded in optimal cutting temperature compound (OCT) were used to determine the distribution and localization of Hs1a-FL from mice previously injected with the fluorescent agent Hs1a-FL (4 nmol, 45 μM of Hs1a-FL in 100 μL of PBS), the blocking solution Hs1a/Hs1a-FL (Hs1a-FL, 45 μM, 4 nmol and Hs1a 120 μM, 12 nmol in 100 μL PBS), or 100 μL of PBS. These resected nerves were incubated with Hoechst 33342 (20 μM, 1 nmol in 50 μL of PBS) to counterstain nuclei, which were subsequently embedded in Mowiol mounting medium. Fresh tissues were counterstained with Hoechst 33342 (20 μM, 1 nmol in 50 μL of PBS) and samples placed directly on a microscope slide for detection of the fluorescence signal of the fluorescent peptide.

mouse sciatic nerve = test: Epifluorescence imaging of resected sciatic nerves after intravenous injection; type: in vivo; details: 30 min post-injection
Procedure: as §1
(§3) One group of animals was intravenously injected with Hs1a-FL (4 nmol, 45 μM of Hs1a-FL in 100 μL of PBS, n = 3). A second group of animals was injected with Hs1a and Hs1a-FL (Hs1a-FL, 45 μM, 4 nmol and Hs1a, 120 μM, 12 nmol in 100 μL PBS, n = 3) or PBS (n = 3). Animals were sacrificed 30 min post-injection and epifluorescence images obtained. Epifluorescence images of the right sciatic nerve (RSN) and left sciatic nerve (LSN) were obtained in situ from all the mice in the study. Epifluorescence images of the biodistribution included RSN, LSN, muscle, heart, kidney, liver, and brain and were acquired with an IVIS Spectrum imaging system (PerkinElmer) using a predetermined filter set (excitation = 710/45 nm, emission = 800–820 nm). […]
(§4) Statistical analyses were performed using GraphPad Prism 8. […] All p values were calculated using an unpaired t test. […]

NaV1.7 = test: Binding to NaV1.7 in vivo post-intravenous injection, blocked by excess unlabeled Hs1a; parameters: species or system mouse
Procedure: as §1
as §2, with “peptide. […]” for “peptide.”

nerve and muscle = test: Nerve-to-muscle comparison, epifluorescence; type: in vivo, mouse
Procedure: as §1, §3, §4

[2] = Ex vivo epifluorescence biodistribution in organs; parameters: species or system mouse; details: 30 min post-injection
Procedure: as §1
One group of animals was intravenously injected with Hs1a-FL (4 nmol, 45 μM of Hs1a-FL in 100 μL of PBS, n = 3). A second group of animals was injected with Hs1a and Hs1a-FL (Hs1a-FL, 45 μM, 4 nmol and Hs1a, 120 μM, 12 nmol in 100 μL PBS, n = 3) or PBS (n = 3). Animals were sacrificed 30 min post-injection and epifluorescence images obtained. Epifluorescence images of the right sciatic nerve (RSN) and left sciatic nerve (LSN) were obtained in situ from all the mice in the study. Epifluorescence images of the biodistribution included RSN, LSN, muscle, heart, kidney, liver, and brain and were acquired with an IVIS Spectrum imaging system (PerkinElmer) using a predetermined filter set (excitation = 710/45 nm, emission = 800–820 nm). Autofluorescence was removed through spectral unmixing. Semiquantitative analysis of the Hs1a-FL signal was conducted by measuring the average radiant efficiency (in units of [p/s/cm^2/sr]/[μW/cm^2]) in regions of interest (ROIs) that were placed on all resected nerves and as well in all organs from the biodistribution under white light guidance.
Statistical analyses were performed using GraphPad Prism 8. Unless otherwise stated, data points represent mean values, and error bars represent standard deviations of biological replicates. All p values were calculated using an unpaired t test. Statistical significance was considered for p values < 0.05 and as follows: ns = not significant, *p < 0.05, **p < 0.01, ***p < 0.001.

neuronal sodium channels = test: Affinity for neuronal sodium channels (summary statement); type: cell-based, human; details: automated patch-clamp, HEK293 cells
Procedure: (§5) HEK293 cells stably expressing the human NaV channel β1 subunit (hNaVβ1) in combination with the α subunit hNaV1.1, hNaV1.2, hNaV1.3, hNaV1.4, hNaV1.5, hNaV1.6, or hNaV1.7 (Scottish Biomedical, Glasgow, UK) were cultured in DMEM/F-12 media (1:1), supplemented with 10% fetal bovine serum, […] geneticin, and […] non-essential amino acids (all reagents from Invitrogen) at 37 °C and in 5% CO2.
(§6) Whole-cell patch-clamp experiments were performed at room temperature using a QPatch 16x automated electrophysiology platform (Sophion Bioscience, Denmark) using 16-channel planar patch-chip plates (QPlates) with a patch-hole diameter of 1 μm and resistance of 2 MΩ. Whole-cell currents were filtered at 5 kHz (8-pole Bessel) and digitized at 25 kHz. A P4 online leak-subtraction protocol was used with non-leak-subtracted currents acquired in parallel. The extracellular solution was 2 mM CaCl2, 1 mM MgCl2, 10 mM HEPES, 4 mM KCl, and 145 mM NaCl at pH 7.4, and the intracellular solution was 140 mM CsF, 1 mM/5 mM EGTA/CsOH, 10 mM HEPES, and 10 mM NaCl at pH 7.3. Hs1a-FL were dissolved in extracellular solution with 0.1% bovine serum albumin (BSA). Concentration-response data were obtained using five concentrations of peptide (2 nM to 10 μM). […] IC50 values were determined from non-linear regression of concentration-response data using GraphPad Prism.

hNaV1.5 = target: T1, hNaV1.5 (Homo sapiens, UniProt Q14524); test: Whole-cell patch-clamp, HEK293 cells stably expressing hNaV1.5; type: cell-based
T1 construct: host or cells: HEK293
T1 sequence (Q14524 whole entry): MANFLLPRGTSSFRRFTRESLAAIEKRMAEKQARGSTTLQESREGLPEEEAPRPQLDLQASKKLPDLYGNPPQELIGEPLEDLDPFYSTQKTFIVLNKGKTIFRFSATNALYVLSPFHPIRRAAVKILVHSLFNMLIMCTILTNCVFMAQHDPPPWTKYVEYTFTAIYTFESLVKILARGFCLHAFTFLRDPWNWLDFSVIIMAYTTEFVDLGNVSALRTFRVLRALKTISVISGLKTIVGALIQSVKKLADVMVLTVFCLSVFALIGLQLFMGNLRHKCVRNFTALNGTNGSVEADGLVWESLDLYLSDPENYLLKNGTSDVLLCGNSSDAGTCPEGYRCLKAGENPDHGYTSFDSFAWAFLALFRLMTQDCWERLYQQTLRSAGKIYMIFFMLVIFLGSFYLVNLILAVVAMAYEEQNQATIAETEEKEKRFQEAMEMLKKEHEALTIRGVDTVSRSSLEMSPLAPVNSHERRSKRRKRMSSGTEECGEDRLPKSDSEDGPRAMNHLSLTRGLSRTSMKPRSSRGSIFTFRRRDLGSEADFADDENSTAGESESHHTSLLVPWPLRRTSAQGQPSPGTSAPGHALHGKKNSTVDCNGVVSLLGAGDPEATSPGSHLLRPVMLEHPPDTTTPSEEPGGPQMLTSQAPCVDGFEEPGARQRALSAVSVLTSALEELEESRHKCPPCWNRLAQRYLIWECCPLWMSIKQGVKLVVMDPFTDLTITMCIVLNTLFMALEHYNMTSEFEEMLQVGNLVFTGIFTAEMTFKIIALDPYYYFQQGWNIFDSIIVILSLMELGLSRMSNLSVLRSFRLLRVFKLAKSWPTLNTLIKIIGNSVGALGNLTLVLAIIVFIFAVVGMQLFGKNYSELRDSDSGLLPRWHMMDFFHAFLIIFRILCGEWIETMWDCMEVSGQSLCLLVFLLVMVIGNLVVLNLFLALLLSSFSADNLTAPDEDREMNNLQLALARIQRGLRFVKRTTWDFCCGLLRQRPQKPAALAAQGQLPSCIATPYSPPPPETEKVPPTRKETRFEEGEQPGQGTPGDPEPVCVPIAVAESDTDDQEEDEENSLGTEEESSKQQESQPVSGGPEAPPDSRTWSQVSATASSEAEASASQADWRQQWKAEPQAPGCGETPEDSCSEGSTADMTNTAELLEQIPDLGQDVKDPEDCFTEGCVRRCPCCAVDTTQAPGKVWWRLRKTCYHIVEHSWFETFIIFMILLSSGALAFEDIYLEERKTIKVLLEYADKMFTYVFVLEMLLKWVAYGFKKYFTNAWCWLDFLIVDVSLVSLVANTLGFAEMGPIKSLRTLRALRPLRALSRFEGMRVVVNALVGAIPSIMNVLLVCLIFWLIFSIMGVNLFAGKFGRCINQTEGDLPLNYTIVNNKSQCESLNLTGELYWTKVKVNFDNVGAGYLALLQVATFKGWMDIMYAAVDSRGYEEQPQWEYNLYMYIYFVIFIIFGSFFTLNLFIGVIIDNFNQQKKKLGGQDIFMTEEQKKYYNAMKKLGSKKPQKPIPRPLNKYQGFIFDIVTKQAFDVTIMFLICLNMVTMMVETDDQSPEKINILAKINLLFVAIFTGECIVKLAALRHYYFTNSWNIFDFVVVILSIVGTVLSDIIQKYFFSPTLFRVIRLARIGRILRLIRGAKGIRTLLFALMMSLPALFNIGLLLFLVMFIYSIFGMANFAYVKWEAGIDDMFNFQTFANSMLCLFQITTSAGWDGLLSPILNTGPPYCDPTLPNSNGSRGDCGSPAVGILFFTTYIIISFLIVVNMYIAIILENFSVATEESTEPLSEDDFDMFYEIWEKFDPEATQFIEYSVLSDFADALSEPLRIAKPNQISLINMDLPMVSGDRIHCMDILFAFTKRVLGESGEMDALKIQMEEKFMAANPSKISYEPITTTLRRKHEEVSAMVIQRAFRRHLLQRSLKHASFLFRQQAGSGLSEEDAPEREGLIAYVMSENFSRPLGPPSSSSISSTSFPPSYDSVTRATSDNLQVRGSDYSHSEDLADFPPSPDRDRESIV
Procedure: as §5, §6

hNaV1.4 = target: T2, hNaV1.4 (Homo sapiens, UniProt P35499); test: Whole-cell patch-clamp, HEK293 cells stably expressing hNaV1.4; type: cell-based
T2 construct: host or cells: HEK293
T2 sequence (Q07699 19-218): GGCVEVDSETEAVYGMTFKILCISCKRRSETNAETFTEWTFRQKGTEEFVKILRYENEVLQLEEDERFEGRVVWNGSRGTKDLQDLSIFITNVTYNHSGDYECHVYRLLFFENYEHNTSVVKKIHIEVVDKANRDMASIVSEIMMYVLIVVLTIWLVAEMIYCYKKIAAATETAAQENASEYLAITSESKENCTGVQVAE
T2 sequence (P35499 whole entry): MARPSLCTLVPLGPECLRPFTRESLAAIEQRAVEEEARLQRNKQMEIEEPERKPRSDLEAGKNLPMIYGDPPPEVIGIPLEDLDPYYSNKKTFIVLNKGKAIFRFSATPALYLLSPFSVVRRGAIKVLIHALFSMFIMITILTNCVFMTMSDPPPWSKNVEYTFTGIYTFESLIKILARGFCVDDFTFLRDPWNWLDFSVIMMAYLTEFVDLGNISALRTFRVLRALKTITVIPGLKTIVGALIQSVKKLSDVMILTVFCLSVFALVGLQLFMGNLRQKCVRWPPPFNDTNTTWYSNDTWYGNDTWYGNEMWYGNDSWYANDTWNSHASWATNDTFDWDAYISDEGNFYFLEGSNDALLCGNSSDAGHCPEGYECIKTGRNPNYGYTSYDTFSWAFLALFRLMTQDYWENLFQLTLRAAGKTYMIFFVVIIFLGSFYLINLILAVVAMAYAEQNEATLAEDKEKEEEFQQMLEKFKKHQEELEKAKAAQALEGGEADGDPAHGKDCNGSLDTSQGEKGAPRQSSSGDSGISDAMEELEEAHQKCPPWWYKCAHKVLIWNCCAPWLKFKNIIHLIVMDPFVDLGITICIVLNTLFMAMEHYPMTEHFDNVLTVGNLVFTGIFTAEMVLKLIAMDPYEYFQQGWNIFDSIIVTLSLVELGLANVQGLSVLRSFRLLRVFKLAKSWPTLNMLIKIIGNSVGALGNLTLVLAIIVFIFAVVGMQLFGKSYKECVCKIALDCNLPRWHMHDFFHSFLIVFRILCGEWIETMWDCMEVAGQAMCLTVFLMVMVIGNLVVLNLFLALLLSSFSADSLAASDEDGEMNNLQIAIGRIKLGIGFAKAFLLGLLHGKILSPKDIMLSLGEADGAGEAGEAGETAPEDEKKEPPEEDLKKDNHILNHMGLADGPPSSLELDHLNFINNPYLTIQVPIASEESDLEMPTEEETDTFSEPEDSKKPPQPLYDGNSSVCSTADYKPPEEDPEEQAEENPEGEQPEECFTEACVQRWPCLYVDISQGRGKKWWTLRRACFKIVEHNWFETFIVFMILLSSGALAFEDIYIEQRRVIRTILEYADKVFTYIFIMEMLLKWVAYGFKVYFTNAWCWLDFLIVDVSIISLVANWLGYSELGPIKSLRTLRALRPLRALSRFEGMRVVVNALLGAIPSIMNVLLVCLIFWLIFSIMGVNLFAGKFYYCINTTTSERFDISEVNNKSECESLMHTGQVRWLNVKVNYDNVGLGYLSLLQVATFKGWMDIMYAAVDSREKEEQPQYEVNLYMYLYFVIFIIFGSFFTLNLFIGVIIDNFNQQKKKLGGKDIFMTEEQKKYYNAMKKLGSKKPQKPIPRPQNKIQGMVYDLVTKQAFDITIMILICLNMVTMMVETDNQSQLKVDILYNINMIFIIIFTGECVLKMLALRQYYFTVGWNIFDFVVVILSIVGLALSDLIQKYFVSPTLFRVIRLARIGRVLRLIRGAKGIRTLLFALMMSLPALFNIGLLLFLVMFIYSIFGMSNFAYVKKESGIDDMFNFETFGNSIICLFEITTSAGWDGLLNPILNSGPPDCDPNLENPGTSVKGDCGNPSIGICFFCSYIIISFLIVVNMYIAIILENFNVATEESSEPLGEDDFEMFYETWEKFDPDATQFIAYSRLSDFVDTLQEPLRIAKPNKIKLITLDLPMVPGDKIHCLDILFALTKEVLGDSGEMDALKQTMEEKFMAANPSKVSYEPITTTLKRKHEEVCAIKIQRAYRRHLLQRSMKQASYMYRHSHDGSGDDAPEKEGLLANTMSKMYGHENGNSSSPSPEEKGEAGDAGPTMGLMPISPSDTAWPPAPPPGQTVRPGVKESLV
Procedure: as §5, §6

hNaV1.2 = target: T3, hNaV1.2 (Homo sapiens, UniProt Q99250); test: Whole-cell patch-clamp, HEK293 cells stably expressing hNaV1.2; type: cell-based; details: QPatch 16x automated whole-cell patch-clamp, holding potential -65 mV, five concentrations (2 nM to 10 μM), 0.1% BSA, pH 7.4, ~22 °C; each point average of 3–11 cells
T3 construct: host or cells: HEK293
Procedure: as §5, §6

hNaV1.3 = target: T4, hNaV1.3 (Homo sapiens, UniProt Q9NY46); test: Whole-cell patch-clamp, HEK293 cells stably expressing hNaV1.3; type: cell-based; details: QPatch 16x automated whole-cell patch-clamp, holding potential -60 mV, five concentrations (2 nM to 10 μM), 0.1% BSA, pH 7.4, ~22 °C; each point average of 3–11 cells
T4 construct: host or cells: HEK293
Procedure: as §5, §6

hNaV1.1 = target: T5, hNaV1.1 (Homo sapiens, UniProt P35498); test: Whole-cell patch-clamp, HEK293 cells stably expressing hNaV1.1; type: cell-based; details: QPatch 16x automated whole-cell patch-clamp, holding potential -60 mV, five concentrations (2 nM to 10 μM), 0.1% BSA, pH 7.4, ~22 °C; each point average of 3–11 cells
T5 construct: host or cells: HEK293
Procedure: as §5, §6

[3] = at concentrations up to 3 μM, automated patch-clamp

Molecule | presence of Hs1a-FL signal in sciatic nerve by confocal microscopy [1] | visibility / accumulation in resected sciatic nerves (mouse sciatic nerve; i.v. 4 nmol Hs1a-FL alone, epifluorescence) | radiant efficiency of resected sciatic nerves (mouse sciatic nerve; i.v. Hs1a-FL 4 nmol (45 μM in 100 μL PBS), with or without Hs1a 12 nmol (120 μM), IVIS, ex 710/45 nm, em 800–820 nm, mean ± SD, n = 3 mice, Hs1a-FL vs co-injection unpaired t test p < 0.001) | binding to NaV1.7 on the surface of human and mouse nerves (NaV1.7; abstract statement) | binding to NaV1.7 channels in vivo (NaV1.7; post-intravenous injection, mouse, blocked by excess dose of unlabeled Hs1a) | nerve-to-muscle contrast (nerve and muscle; epifluorescence visualization of sciatic mouse nerves, abstract statement) | nerve-to-muscle ratio (nerve and muscle; i.v. Hs1a-FL 4 nmol with or without Hs1a 12 nmol (block), 30 min post-injection, epifluorescence, mean ± SD, PBS 2.90 ± 2.76) | radiant efficiency, brain ([2]; i.v. 4 nmol in 100 μL PBS, IVIS, ex 710/45 nm, em 800–820 nm, mean ± SD, n = 3, PBS group 0.001 ± 0.0005 × 10^7) | radiant efficiency, liver ([2]; i.v. 4 nmol in 100 μL PBS, IVIS, ex 710/45 nm, em 800–820 nm, mean ± SD, n = 3, PBS group 0.002 ± 0.001 × 10^7) | radiant efficiency, kidney ([2]; i.v. 4 nmol in 100 μL PBS, IVIS, ex 710/45 nm, em 800–820 nm, mean ± SD, n = 3, PBS group 0.005 ± 0.004 × 10^7) | liver accumulation ([2]; mouse, i.v. 4 nmol) | affinity for neuronal sodium channels (neuronal sodium channels; ~22 °C) | IC50 range for neuronal NaV channels (neuronal sodium channels; NaV1.1, NaV1.2, NaV1.3, NaV1.6, NaV1.7) | IC50 (hNaV1.5; QPatch 16x automated whole-cell patch-clamp, holding potential -105 mV, five concentrations (2 nM to 10 μM), 0.1% BSA, pH 7.4, ~22 °C, each point average of 3–11 cells) [nM] | inhibition of NaV1.5 (hNaV1.5; [3]) | IC50 (hNaV1.4; QPatch 16x automated whole-cell patch-clamp, holding potential -75 mV, five concentrations (2 nM to 10 μM), 0.1% BSA, pH 7.4, ~22 °C, each point average of 3–11 cells) [nM] | inhibition of NaV1.4 (hNaV1.4; [3]) | IC50 (hNaV1.2) [nM] | IC50 (hNaV1.3) [nM] | IC50 (hNaV1.1) [nM]
Cy7.5@GNDCLGFWSACNPKNDKCCANLVCSSKHKWCKGKL (disulfide) [Hs1a-FL, NIR-labeled version of Hs1a, Hs1a conjugated to Cy7.5 dye] | confirmed the presence of Hs1a-FL signal | clearly visible | 1.6 ± 0.3 × 10^5 [p/s/cm^2/sr]/[μW/cm^2] | specific and stable binding | specifically bind to NaV1.7 channels in vivo | favorable nerve-to-muscle contrast | 4.83 ± 8.73 and ~ 4 | 0.2 ± 0.1 × 10^7 [p/s/cm^2/sr]/[μW/cm^2] | 3.0 ± 2.0 × 10^7 [p/s/cm^2/sr]/[μW/cm^2] | 1.4 ± 1.1 × 10^7 [p/s/cm^2/sr]/[μW/cm^2] | high liver accumulation | – | – | – | – | – | – | – | – | –
CC(C)C[C@H](NC(=O)[C@H](CCCCN)NC(=O)CNC(=O)[C@H](CCCCN)NC(=O)[C@@H]1CSSC[C@@H]2NC(=O)[C@H](CCCCN)NC(=O)[C@H](CC(=O)O)NC(=O)[C@H](CC(N)=O)NC(=O)[C@H](CCCCN)NC(=O)[C@@H]3CCCN3C(=O)[C@H](CC(N)=O)NC(=O)[C@@H]3CSSC[C@H](NC(=O)[C@H](C(C)C)NC(=O)[C@H](CC(C)C)NC(=O)[C@H](CC(N)=O)NC(=O)[C@H](C)NC(=O)[C@H](CSSC[C@H](NC(=O)[C@H](CC(=O)O)NC(=O)[C@H](CC(N)=O)NC(=O)CN)C(=O)N[C@@H](CC(C)C)C(=O)NCC(=O)N[C@@H](Cc4ccccc4)C(=O)N[C@@H](Cc4c[nH]c5ccccc45)C(=O)N[C@@H](CO)C(=O)N[C@@H](C)C(=O)N3)NC2=O)C(=O)N[C@@H](CO)C(=O)N[C@@H](CO)C(=O)N[C@@H](CCCCN)C(=O)N[C@@H](Cc2c[nH]cn2)C(=O)N[C@@H](CCCCN)C(=O)N[C@@H](Cc2c[nH]c3ccccc23)C(=O)N1)C(=O)O [Hs1a] | – | – | – | – | – | – | – | – | – | – | – | low nanomolar affinity | low nanomolar range | > 3000 | did not inhibit | > 3000 | did not inhibit | 82.2 | 107 | 19.4
